# Patent US8772299B2, “Phenyl piperazine compounds, pharmaceutical composition including the same and use thereof” (SK Biopharmaceuticals Co., Ltd., priority 2008, dated 2014)
# Counter-ions that a name gives are not always drawn.
# Tests used:
# [1] = test system: mice; test: Tail Suspension Test in Mice (TST); assay type: in vivo; details: Mus musculus, reduction in immobility vs control group, 1 mg/kg, po
# Excerpt: Tail Suspension Test in mice is the well-known animal model to determine antidepressant efficacy of compounds by checking escaping behavior and immobility time of mice. Mice treated with antidepressant drug show escaping behavior continuously comparing with control group.
# The mice were mainly treated orally with the test compound dissolved in 30% PEG400 or with only 30% PEG400 as control. Tail of mouse is suspended to the rod of TST equipment and end of tail is fixed with sticky tape. Suspended mouse is incubated during 2 min for training and adaptation and after following 2 min, observe escaping behavior and check immobility time for 4 min. The potent ability of the compounds was determined as percent value of reduction in immobility comparing to control group as 100% baseline.
# [2] = test system: mice; test: Anti-Marble Burying Behavior Test in Mice; assay type: in vivo; details: Mus musculus, reduction in number of marbles buried, ip
# Excerpt: Marble burying was developed and validated as a pre-clinical assay of potential anxiolytic activity (Andrews and Broekkamp (1993). Procedures to Identify Anxiolytic or Anxiogenic agents. In Behavioural Neuroscience, ed. A Sahgal, pp. 37-54. IRL Press, Oxford). The marble burying test places a naive mouse into a novel environment containing 25 marbles (arranged on top of a sawdust surface). A reduction in the number of marbles buried by the mouse was hypothesized to be an anxiolytic-like effect.
# [3] = molecular target: T1, Serotonin 1A (5-HT1A) receptor (Rattus norvegicus, UniProt P19327); test: Serotonin 1A (5-HT1A) receptor inhibition assay, [3H]8-OH-DPAT binding to rat cortex membranes; set-up: species or system Sprague-Dawley (SD) rats; details: 10 nM test compound; 0.92 nM [3H]8-OH-DPAT; rat cortex homogenate; 60 min at 25° C.
# T1 construct: The cortex tissue were homogenized in 30 volumes of ice-cold 50 mM Tris-HCl buffer; from tissue; host or cells: Sprague-Dawley rat brain cortex membranes
# T1 sequence (P19327 1-422): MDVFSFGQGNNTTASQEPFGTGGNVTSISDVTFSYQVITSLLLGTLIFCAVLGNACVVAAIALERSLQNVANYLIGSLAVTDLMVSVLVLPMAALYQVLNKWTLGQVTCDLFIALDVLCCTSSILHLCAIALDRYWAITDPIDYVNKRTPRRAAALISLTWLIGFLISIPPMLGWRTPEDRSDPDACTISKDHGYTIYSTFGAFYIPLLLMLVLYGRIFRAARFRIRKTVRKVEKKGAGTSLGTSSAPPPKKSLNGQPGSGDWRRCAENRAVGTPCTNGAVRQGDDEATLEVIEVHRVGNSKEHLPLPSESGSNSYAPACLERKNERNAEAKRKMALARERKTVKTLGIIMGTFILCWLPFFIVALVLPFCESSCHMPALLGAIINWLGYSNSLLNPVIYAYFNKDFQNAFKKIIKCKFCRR
# Method: The method to test the ability of compounds to inhibit serotonin 1A(5-HT1A) receptors was using Hall. et al., J Neuro Chem., 1985, 44, p 1685-1696 with modification.
# The Sprague-Dawley (SD) rats were killed by decapitation and their brains rapidly removed at 4° C. The cortex tissue were homogenized in 30 volumes of ice-cold 50 mM Tris-HCl buffer (pH7.4) using an ultra-turrax T8 and centrifuged at 48,000 g for 20 min. The supernatant was discarded and the pellet washed twice by resuspension in 20 volumes Tris-HCl and centrifugation, homogenized in 20 volumes Tris-HCl, and incubated at 37° C. for 10 min. Membranes were than collected by centrifugation and washed twice before final resuspension in 10 volumes of 50 mM Tris-HCl, pH7.4.
# For binding assays, the incubation medium consisted of 162.5 ug of tissue homogenate, 0.92 nM of [3H]8-OH-DPAT and vehicle or 10 uM of 5-HT or 10 nM of test compounds per well. 5-HT and test compounds were dissolved in distilled water and incubation medium was 50 mM Tris(pH7.4 at room temperature). The assay plates (96 well) were incubated for 60 min at 25° C. The reaction was terminated by rapid filtration using a Tomtec harvester, through GF/C glassfibre filter with 5 times washes of Tris buffer. The radioactivity retained on the filters was counted by scintillation spectroscopy (MicroBeta TriLux, Wallac). The tests were triplicates. Percent inhibition was calculated as below equation.
# Total binding is the value of vehicle treated group and specific binding is the values that deduct non-specific binding (i.e. the value of non-specific ligand, 5-HT).
inhibition at 0.01 µM [3] [%],Structure (SMILES),inhibition in vivo at 1 mg/kg [1] [%],inhibition in vivo at 3 mg/kg [2] [%],inhibition in vivo at 7.5 mg/kg [2] [%],inhibition in vivo at 20 mg/kg ([2]; 20 mg/kg) [%]
60.9,"COc1ccccc1N1CCN(CCCCOc2ccc(Cn3ccnn3)cc2)CC1 [Example 12, 1-(2-methoxy-phenyl)-4-[4-(4-[1,2,3]triazol-1-ylmethyl-phenoxy)-butyl]-piperazine]",12.7,97.3,–,–
51.6,"COc1ccccc1N1CCN(CCCCOc2cccc(Cn3nccn3)c2)CC1 [Example 24, 1-(2-methoxy-phenyl)-4-[4-(3-[1,2,3]triazol-2-ylmethyl-phenoxy)-butyl]-piperazine]",–,62.6,–,–
61.8,"COc1ccccc1N1CCN(CCCCOc2ccc(Cn3nccn3)cc2)CC1 [Example 11, 1-(2-methoxy-phenyl)-4-[4-(4-[1,2,3]triazol-2-ylmethyl-phenoxy)-butyl]-piperazine]",25,–,69,–
81.6,"COc1ccccc1N1CCN(CCCCOc2cccc(Cn3ncnn3)c2)CC1 [Example 8, 1-(2-methoxy-phenyl)-4-[4-(3-tetrazol-2-ylmethyl-phenoxy)-butyl]-piperazine hydrochloride]",19.6,–,–,–
45,"COc1ccccc1N1CCN(CCCCOc2ccc(CCn3nccn3)cc2)CC1 [Example 49, 1-(2-methoxy-phenyl)-4-{4-[4-(2-[1,2,3]triazol-2-yl-ethyl)-phenoxy]-butyl}-piperazine]",34.3,–,–,–
–,"COc1ccccc1N1CCN(CCCCOc2ccc(CN3CCOCC3)cc2)CC1 [Example 32, 4-(4-{4-[4-(2-methoxy-phenyl)-piperazin-1-yl]-butoxy}-benzyl)-morpholine]",–,–,27.8,–
78.4,"COc1ccccc1N1CCN(CCCCOc2cccc(Cn3cnnn3)c2)CC1 [Example 7, 1-(2-methoxy-phenyl)-4-[4-(3-tetrazol-1-ylmethyl-phenoxy)-butyl]-piperazine hydrochloride]",21.1,–,61.1,–
83.1,"COc1ccccc1N1CCN(CCCCOc2ccc(Cn3ccnc3)cc2)CC1 [Example 1, 1-[4-(4-imidazol-1-ylmethyl-phenoxy)-butyl]-4-(2-methoxy-phenyl)-piperazine]",–,28.7,–,–
51,"COc1ccccc1N1CCN(CCCCOc2ccc(CCn3ccnn3)cc2)CC1 [Example 50, 1-(2-methoxy-phenyl)-4-{4-[4-(2-[1,2,3]triazol-1-yl-ethyl)-phenoxy]-butyl}-piperazine]",46.9,–,96.8,–
80.3,"COc1ccccc1N1CCN(CCCCOc2ccc(Cn3cncn3)cc2)CC1 [Example 2, 1-(2-methoxy-phenyl)-4-[4-(4-[1,2,4]triazol-1-ylmethyl-phenoxy)-butyl]-piperazine]",–,93.3,–,–
–,"O=C1CC2(CCCC2)CC(=O)N1CCCCN1CCN(c2ncccn2)CC1 [Buspirone, reference compound]",–,–,–,56
62,"COc1ccccc1N1CCN(CCCCOc2ccc(CCn3cnnn3)cc2)CC1 [Example 52, 1-(2-methoxy-phenyl)-4-{4-[4-(2-tetrazol-1-yl-ethyl)-phenoxy]-butyl}-piperazine]",26.4,–,–,–
50.7,"COc1ccccc1N1CCN(CCCCOc2cccc(Cn3ccnc3)c2)CC1 [Example 5, 1-[4-(3-imidazol-1-ylmethyl-phenoxy)-butyl]-4-(2-methoxy-phenyl)-piperazine-hydrochloride]",21.2,–,60.3,–
28.1,"Clc1cccc(N2CCN(CCCCOc3ccc(Cn4ncnn4)cc3)CC2)c1Cl [Example 36, 1-(2,3-dichloro-phenyl)-4-[4-(4-tetrazol-2-ylmethyl-phenoxy)-butyl]-piperazine]",–,25.3,–,–
47,"COc1ccccc1N1CCN(CCCCOc2ccc(CCn3ncnn3)cc2)CC1 [Example 51, 1-(2-methoxy-phenyl)-4-{4-[4-(2-tetrazol-2-yl-ethyl)-phenoxy]-butyl}-piperazine]",14.7,–,44.4,–
68.5,"COc1ccccc1N1CCN(CCCCOc2ccc(CN3CCCCC3)cc2)CC1 [Example 20, 1-(2-methoxy-phenyl)-4-[4-(4-piperidin-1-ylmethyl-phenoxy)-butyl]-piperazine]",–,–,27,–
70,"COc1ccccc1N1CCN(CCCCOc2ccc(CCn3ccnc3)cc2)CC1 [Example 47, 1-{4-[4-(2-imidazol-1-yl-ethyl)-phenoxy]-butyl}-4-(2-methoxy-phenyl)-piperazine]",–,39.3,–,–
71,"COc1ccccc1N1CCN(CCCCOc2ccc(CCn3nnc(C)n3)cc2)CC1 [Example 54, 1-(2-Methoxy-phenyl)-4-(4-{4-[2-(5-methyl-tetrazol-2-yl)-ethyl]-phenoxy}-butyl)-piperazine]",31.8,–,–,–
48,"COc1ccccc1N1CCN(CCCCOc2ccc(CCn3cncn3)cc2)CC1 [Example 48, 1-(2-methoxy-phenyl)-4-{4-[4-(2-[1,2,4]triazol-1-yl-ethyl)-phenoxy]-butyl}-piperazine]",26.2,31.3,–,–

Structure (SMILES),inhibition at 0.01 µM [3] [%],inhibition in vivo at 1 mg/kg [1] [%],inhibition in vivo at 3 mg/kg [2] [%],inhibition in vivo at 7.5 mg/kg [2] [%],inhibition in vivo at 20 mg/kg ([2]; 20 mg/kg) [%]
"COc1ccccc1N1CCN(CCCCOc2ccc(CN(C)C)cc2)CC1 [Example 19, (4-{4-[4-(2-methoxy-phenyl)-piperazin-1-yl]-butoxy}-benzyl)-dimethyl-amine dihydrochloride]",59.6,50.6,–,50.8,–
"Clc1cccc(N2CCN(CCCCOc3ccc(CN4CCOCC4)cc3)CC2)c1Cl [Example 40, 4-(4-{4-[4-(2,3-Dichloro-phenyl)-piperazin-1-yl]-butoxy}-benzyl)-morpholine]",45.6,10.6,–,–,–
"COc1ccccc1N1CCN(CCCCOc2ccc(CNc3ccccc3)cc2)CC1 [Example 21, (4-{4-[4-(2-methoxy-phenyl)-piperazin-1-yl]-butoxy}-benzyl)-phenyl-amine]",38.2,–,29.9,–,–
"COc1ccccc1N1CCN(CCCCOc2cccc(CN(C)C)c2)CC1 [Example 28, (3-{4-[4-(2-methoxy-phenyl)-piperazin-1-yl]-butoxy}-benzyl)-dimethyl-amine]",13.5,–,24.6,–,–
"CN(C)Cc1ccc(OCCCCN2CCN(c3ccccc3Cl)CC2)cc1 [Example 33, (4-{4-[4-(2-Chloro-phenyl)-piperazin-1-yl]-butoxy}-benzyl)-dimethyl-amine]",53.7,26.8,–,–,–
"CN(C)Cc1ccc(OCCCCN2CCN(c3cccc(Cl)c3Cl)CC2)cc1 [Example 39, (4-{4-[4-(2,3-dichloro-phenyl)-piperazin-1-yl]-butoxy}-benzyl)-dimethyl-amine]",52.9,30.4,–,–,–
